One may read the IC50 as the point on the concentration scale where inhibition reaches its midpoint.

For 68 compounds, IC50 results are on record in US9657009B2, “Heteroaryl substituted pyridyl compounds useful as kinase modulators” (BRISTOL-MYERS SQUIBB COMPANY, priority 2012, dated 2017).

For the experiment, the target named is IRAK4 (Homo sapiens (Human), UniProt Q9NWZ3). The experiment can be described thus: IRAK4 Inhibition Assay. It is filed as biochemical. The conditions noted are these: ATP 500 μM; IRAK4 0.6 nM; 60 min at room temperature; read-out: IRAK4 IC50. The protocol: IRAK4 Inhibition Assay The assays were performed in U-bottom 384-well plates. […] The reaction was initiated by the combination of IRAK4 with substrates and test compounds. The reaction mixture was incubated at room temperature for 60 min. and terminated by adding 45 μL of 35 mM EDTA to each sample.
Chain of IRAK4 (Q9NWZ3 whole entry, species assumed): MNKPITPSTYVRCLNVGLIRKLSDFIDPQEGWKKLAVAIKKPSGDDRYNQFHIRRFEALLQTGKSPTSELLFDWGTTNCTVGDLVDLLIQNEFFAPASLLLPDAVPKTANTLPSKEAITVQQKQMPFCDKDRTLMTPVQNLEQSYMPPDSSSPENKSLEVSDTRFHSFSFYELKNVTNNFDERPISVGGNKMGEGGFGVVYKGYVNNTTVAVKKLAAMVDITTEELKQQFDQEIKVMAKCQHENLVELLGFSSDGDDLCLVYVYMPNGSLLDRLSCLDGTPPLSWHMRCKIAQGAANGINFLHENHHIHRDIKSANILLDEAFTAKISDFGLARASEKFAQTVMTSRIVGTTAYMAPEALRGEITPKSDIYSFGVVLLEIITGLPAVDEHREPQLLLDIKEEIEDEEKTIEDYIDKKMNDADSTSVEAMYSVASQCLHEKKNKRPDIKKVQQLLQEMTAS
Regarding `C[C@@H](CO)Nc1cc(Nc2ncc(C#N)cc2Cl)ncc1C(=O)NC[C@@H](F)C(C)(C)O` [Example 50], the IC50 is 9.4 nM. The figure for `CCNc1cc(Nc2ncc(C#N)cc2Cl)ncc1C(=O)NC[C@@H](F)C(C)(C)O` [Example 51] is 4.6 nM; for `CC(C)Nc1cc(Nc2ncncc2F)ncc1C(=O)NC[C@@H](F)C(C)(C)O` [Example 53] it is 8.1 nM; for `CC(C)(O)[C@H](F)CNC(=O)c1cnc(Nc2ncc(C#N)cn2)cc1NC1CCC(F)C1` (some centres unmarked) [Example 56] it is 5 nM. With `CCNc1cc(Nc2ncc(C#N)cn2)ncc1C(=O)NC[C@@H](F)C(C)(C)O` [Example 58], the 50% inhibitory concentration (IC50) worked out at 10.4 nM. The figure for `CNC(=O)[C@H]1CC[C@H](NC(=O)c2cnc(Nc3ncc(C#N)cc3F)cc2NC2CC2)CC1` [Example 59] is 7.4 nM. For `CNC(=O)[C@H]1CC[C@H](NC(=O)c2cnc(Nc3ncc(C#N)cc3Cl)cc2NC2CC2)CC1` [Example 60] the value was 6.7 nM; for `CNC(=O)[C@H]1CC[C@H](NC(=O)c2cnc(Nc3ncc(C#N)cc3F)cc2NC2CCOCC2)CC1` [Example 61], 8.4 nM.

In the case of `Cc1nc(Nc2cc(NC(C)C)c(C(=O)NC[C@@H](F)C(C)(C)O)cn2)ccc1C#N` [Example 63], the concentration for half-maximal inhibition (IC50) was 3.8 nM. For `CC(=O)N[C@H](C)CCNC(=O)c1cnc(Nc2ncc(C#N)cc2F)cc1NC(C)C` [Example 64] the value was 3.1 nM; for `CC(C)(O)[C@H](F)CNC(=O)c1cnc(Nc2ncc(C#N)cc2Cl)cc1NCC(F)(F)F` [Example 65], 2.9 nM. The figure for `CCNc1cc(Nc2ncc(C#N)cc2F)ncc1C(=O)NC[C@@H](F)C(C)(C)O` [Example 66] is 3.8 nM. The figure for `CC(=O)N[C@H]1CC[C@H](NC(=O)c2cnc(Nc3ncc(C#N)cc3Cl)cc2NC2CC2)CC1` [Example 67] is 7.2 nM.

`CCn1ncc(Nc2cc(NC(C)C)c(C(=O)NC[C@@H](F)C(C)(C)O)cn2)n1` [Example 72]: the IC50 was determined as 10.4 nM. As to `CC(C)(O)c1cnc(Nc2cc(Nc3ncc(C#N)cc3Cl)ncc2C(=O)NC[C@@H](F)C(C)(C)O)s1` [Example 75], the IC50 is 1.4 nM. With `CC(C)(O)[C@H](F)CNC(=O)c1cnc(Nc2ncc(C#N)cc2Cl)cc1NC1CCCC1O` (some centres unmarked) [Example 76], the half-maximal inhibitory concentration (IC50) amounted to 6.4 nM. `CC(=O)N[C@H]1CC[C@H](NC(=O)c2cnc(Nc3ncc(C#N)cc3Cl)cc2NC2CCOCC2)CC1` [Example 77]: the concentration for half-maximal inhibition (IC50) is 7.8 nM.

`CC(C)(O)[C@H](F)CNC(=O)c1cnc(Nc2ncc(C#N)cc2Cl)cc1NC1CCOCC1F` (some centres unmarked) [Example 79]: the IC50 was 3 nM.

`CC(C)Nc1cc(Nc2ncc(F)cc2F)ncc1C(=O)NC[C@@H](F)C(C)(C)O` [Example 80]: the IC50 worked out at 7 nM.

Take `CC(C)(O)[C@H](F)CNC(=O)c1cnc(Nc2ccc(Cl)cn2)cc1NC1CC1` [Example 81]: the IC50 was determined as 7.1 nM. The figure for `CC(=O)N[C@H]1CC[C@H](NC(=O)c2cnc(Nc3ncc(C#N)cc3F)cc2NC2CC2)CC1` [Example 83] is 7.3 nM; for `Cc1cc(C#N)cnc1Nc1cc(NC(C)C)c(C(=O)NC[C@@H](F)C(C)(C)O)cn1` [Example 85] it is 3.6 nM; for `CC(C)(O)[C@H](F)CNC(=O)c1cnc(Nc2ncc(C#N)cn2)cc1NC1CCC(F)C1` (some centres unmarked) [Example 86] it is 4.8 nM. For `CC(C)(O)[C@H](F)CNC(=O)c1cnc(Nc2ncc(F)cc2F)cc1NC1CC1` [Example 89] the value was 14.5 nM. The figure for `CC(C)(O)[C@H](F)CNC(=O)c1cnc(Nc2ncc(C#N)cc2Cl)cc1NC12CC(C1)C2` [Example 90] is 3.5 nM; for `C[C@@H](CO)Nc1cc(Nc2ncc(C#N)cc2F)ncc1C(=O)NC[C@@H](F)C(C)(C)O` [Example 91] it is 4.3 nM.

For `CC(C)Nc1cc(Nc2ncc(C#N)cc2Cl)ncc1C(=O)N[C@H]1CC[C@H](O)CC1` [Example 92], the IC50 was found to be 12.7 nM. `COC(=O)Cn1cc(Cl)c(Nc2cc(NC(C)C)c(C(=O)NC[C@@H](F)C(C)(C)O)cn2)n1` [Example 93]: the IC50 worked out at 17.5 nM. For `CC(C)(O)[C@H](F)CNC(=O)c1cnc(Nc2ncncc2F)cc1NC1CC1` [Example 94] the value was 12.1 nM; for `CC(C)(O)[C@H](F)CNC(=O)c1cnc(Nc2ncncc2Cl)cc1NC1CCCOC1` (some centres unmarked) [Example 96], 11.2 nM; for `CC(C)(O)[C@H](F)CNC(=O)c1cnc(Nc2ncc(C#N)cc2F)cc1NC1CCCOC1` (some centres unmarked) [Example 97], 5.3 nM. The figure for `CC(C)(O)[C@H](F)CNC(=O)c1cnc(Nc2ncc(C#N)cc2F)cc1NC1CCCOC1` (some centres unmarked) [Example 98] is 7.5 nM.

On to `CCC(C)Nc1cc(Nc2ncc(C#N)cn2)ncc1C(=O)NC[C@@H](F)C(C)(C)O` (some centres unmarked) [Example 99], for which the IC50 came out at 4.2 nM. The figure for `C[C@H](CO)Nc1cc(Nc2ncc(F)cc2F)ncc1C(=O)NC[C@@H](F)C(C)(C)O` [Example 100] is 17.4 nM. The figure for `C[C@@H](CO)Nc1cc(Nc2ncc(C#N)cn2)ncc1C(=O)NC[C@@H](F)C(C)(C)O` [Example 101] is 5.6 nM; for `CC(C)(F)CNc1cc(Nc2ncc(C#N)cc2Cl)ncc1C(=O)NC1CCC(C(C)(C)O)CC1` (centres unmarked) [Example 103] it is 5.3 nM. The figure for `CC(C)(O)[C@H](F)CNC(=O)c1cnc(Nc2ncc(C#N)cc2Cl)cc1NC1CCCCC1O` (some centres unmarked) [Example 104] is 8.6 nM; for `CC(C)(O)[C@H](F)CNC(=O)c1cnc(Nc2ncc(C#N)cn2)cc1N[C@H]1CCC[C@H]1F` [Example 107] it is 9.1 nM; for `CC(C)(O)[C@H](F)CNC(=O)c1cnc(Nc2ncc(F)cc2F)cc1NC1CCOCC1F` (some centres unmarked) [Example 108] it is 8.7 nM. As for `CC(C)Nc1cc(Nc2ncc(O)cn2)ncc1C(=O)NC[C@@H](F)C(C)(C)O` [Example 111], the IC50 was determined as 11.8 nM. For `COc1cnc(Nc2cc(NC3CCC3)c(C(=O)NC[C@@H](F)C(C)(C)O)cn2)nc1` [Example 112] the value was 11 nM; for `Cc1cnc(Nc2cc(NC(C)C)c(C(=O)NC[C@@H](F)C(C)(C)O)cn2)nc1` [Example 113], 17 nM; for `CC(C)(O)[C@H](F)CNC(=O)c1cnc(Nc2ncc(C#N)cc2F)cc1NC1CCC(F)C1` (some centres unmarked) [Example 114], 2.3 nM. For `CC(C)Nc1cc(Nc2ncc(C#N)cc2F)ncc1C(=O)N[C@H]1CC[C@H](C(=O)NC(C)C)CC1` [Example 116] the value was 2.8 nM; for `CCC(O)(CC)[C@H](F)CNC(=O)c1cnc(Nc2ncc(C#N)cn2)cc1NC(C)C` [Example 117], 3.8 nM.

Regarding `CC(C)Nc1cc(Nc2ncc(C#N)cc2F)ncc1C(=O)N[C@H]1CC[C@H](C(=O)NC2CC2)CC1` [Example 118], the 50% inhibitory concentration (IC50) is 4.6 nM.

Take `CC(C)(O)[C@H](F)CNC(=O)c1cnc(Nc2ncc(C#N)cc2F)cc1NC12CC3CC(CC(C3)C1)C2` [Example 119]: the half-inhibitory concentration (IC50) turned out to be 10.5 nM. With `CC(C)Nc1cc(Nc2ncc(C#N)cc2F)ncc1C(=O)NCCc1ccc(S(N)(=O)=O)cc1` [Example 121], the IC50 turned out to be 6.6 nM.

As to `CC(C)(O)[C@H](F)CNC(=O)c1cnc(Nc2ncc(C#N)cc2F)cc1Nc1cccc(CO)c1` [Example 122], the half-inhibitory concentration (IC50) was determined as 3.3 nM. For `CC(C)Nc1cc(Nc2ncc(Cl)cc2F)ncc1C(=O)NC[C@@H](F)C(C)(C)O` [Example 123] the value was 3.5 nM; for `CC(C)(O)[C@H](F)CNC(=O)c1cnc(Nc2ncc(Cl)cc2F)cc1NC1CC1` [Example 124], 5.7 nM.

Consider `CC(C)(O)[C@H](F)CNC(=O)c1cnc(Nc2ncc(C#N)cc2F)cc1Nc1cccc(O)c1` [Example 125], for which the IC50 stood at 3.6 nM.

For `CC(C)(O)[C@H](F)CNC(=O)c1cnc(Nc2ncc(C#N)cc2F)cc1NCC(F)(F)C(C)(C)O` [Example 126], the IC50 was determined as 2.9 nM. The figure for `CC(C)Nc1cc(Nc2ncc(C#N)cc2F)ncc1C(=O)NCCCOC(C)(C)C` [Example 127] is 15.3 nM; for `CC(C)(O)[C@H](F)CNC(=O)c1cnc(Nc2ncc(C#N)cc2F)cc1Nc1cccc(S(N)(=O)=O)c1` [Example 128] it is 4.6 nM. For `Cc1cnc(Nc2cc(NC(C)C)c(C(=O)NC[C@@H](F)C(C)(C)O)cn2)c(F)c1` [Example 129] the value was 15.9 nM; for `COc1cccc(Nc2cc(Nc3ncc(C#N)cc3F)ncc2C(=O)NC[C@@H](F)C(C)(C)O)c1` [Example 130], 4 nM.

Consider `CC(C)Nc1cc(Nc2ccnc(N)n2)ncc1C(=O)NC[C@@H](F)C(C)(C)O` [Example 131], for which the half-inhibitory concentration (IC50) is 10.6 nM.

On to `CC(C)Nc1cc(Nc2ncncc2N)ncc1C(=O)NC[C@@H](F)C(C)(C)O` [Example 132], for which the IC50 worked out at 13 nM.

Consider `CC(C)(O)[C@H](F)CNC(=O)c1cnc(Nc2ncc(C#N)cc2F)cc1NC12CCC(O)(CC1)C2` [Example 133], for which the IC50 amounted to 3.2 nM.

For `CC(C)(O)[C@H](F)CNC(=O)c1cnc(Nc2ncc(C#N)cc2F)cc1Nc1cccc(NS(C)(=O)=O)c1` [Example 134], the IC50 was determined as 5.2 nM. For `CC(C)(O)[C@H](F)CNC(=O)c1cnc(Nc2ncc(C#N)cc2F)cc1Nc1cccc(C(N)=O)c1` [Example 135] the value was 6 nM; for `CC(C)Nc1cc(Nc2ncc(C#N)c(N)n2)ncc1C(=O)NC[C@@H](F)C(C)(C)O` [Example 136], 3.3 nM. As to `CC(C)Nc1cc(Nc2ncc(C#N)cc2F)ncc1C(=O)N[C@H]1CC[C@H](C(C)(C)O)CC1` [Example 137], the IC50 came to 4.1 nM.

For the compound `CCCNc1cc(Nc2ncc(C#N)cc2Cl)ncc1C(=O)NC[C@@H](F)C(C)(C)O` [Example 138], the half-maximal inhibitory concentration (IC50) turned out to be 3.5 nM.

For the compound `CCCNc1cc(Nc2ncc(C#N)cc2F)ncc1C(=O)NC[C@@H](F)C(C)(C)O` [Example 139], the IC50 worked out at 6 nM.

Consider `CC(C)CCNc1cc(Nc2ncc(C#N)cc2Cl)ncc1C(=O)NC[C@@H](F)C(C)(C)O` [Example 140], for which the IC50 was 7.3 nM. `CC(C)CCNc1cc(Nc2ncc(C#N)cc2F)ncc1C(=O)NC[C@@H](F)C(C)(C)O` [Example 141]: the IC50 was determined as 9.9 nM.
